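Method: 48-hour compound exposure of cells in 96-well plates, five concentrations, linear interpolation of endpoints. GI50 is the concentration that inhibits growth by half.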 The source made the active and inactive calls. Cut-off read from the data, not from the text of the source: active = GI50 up to about 1.1 µM and inactive = higher.
Key:
Test in all cases: NCI tumour cell line growth inhibition, 48 h
OVCAR-8 = test system: OVCAR-8
UACC-257 = test system: UACC-257
LXFL 529 = test system: LXFL 529
SN12C = test system: SN12C
UACC-62 = test system: UACC-62
IGROV-1 = test system: IGROV-1
RXF 393 = test system: RXF 393
SNB-78 = test system: SNB-78
SNB-19 = test system: SNB-19
ACHN = test system: ACHN
EKVX = test system: EKVX
LOX IMVI = test system: LOX IMVI
NCI-H522 = test system: NCI-H522
COLO 205 = test system: COLO 205
SK-OV-3 = test system: SK-OV-3
K562 = test system: K562
SW-620 = test system: SW-620
MOLT-4 = test system: MOLT-4
CCRF-CEM = test system: CCRF-CEM
A498 = test system: A498
KM-20L2 = test system: KM-20L2
HCC 2998 = test system: HCC 2998
DMS-114 = test system: DMS-114
SF-268 = test system: SF-268
NCI-H23 = test system: NCI-H23
M14 = test system: M14
SR = test system: SR
UO-31 = test system: UO-31
SNB-75 = test system: SNB-75
RXF 631 = test system: RXF 631
SF-539 = test system: SF-539
MDA-N = test system: MDA-N
MDA-MB-231 = test system: MDA-MB-231
OVCAR-4 = test system: OVCAR-4
TK-10 = test system: TK-10
KM12 = test system: KM12
Malme-3M = test system: Malme-3M
NCI-H460 = test system: NCI-H460
SK-MEL-2 = test system: SK-MEL-2
MCF7 = test system: MCF7
CAKI-1 = test system: CAKI-1
BT-549 = test system: BT-549
HOP-18 = test system: HOP-18
NCI/ADR-RES = test system: NCI/ADR-RES
NCI-H226 = test system: NCI-H226
A549 = test system: A549
M19-MEL = test system: M19-MEL
MDA-MB-435 = test system: MDA-MB-435
HOP-62 = test system: HOP-62
PC-3 = test system: PC-3
DMS-273 = test system: DMS-273
DLD-1 = test system: DLD-1
Hs-578T = test system: Hs-578T
OVCAR-5 = test system: OVCAR-5
U-251 = test system: U-251
XF498 = test system: XF498
OVCAR-3 = test system: OVCAR-3
RPMI-8226 = test system: RPMI-8226
SF-295 = test system: SF-295
SK-MEL-5 = test system: SK-MEL-5
HOP-92 = test system: HOP-92
HCT-15 = test system: HCT-15
786-0 = test system: 786-0
HCT-116 = test system: HCT-116
HL-60 = test system: HL-60
DU-145 = test system: DU-145
SK-MEL-28 = test system: SK-MEL-28
HT-29 = test system: HT-29
T47D = test system: T47D

SMILES: COC(=O)c1sc(C(=O)OC)c2c1CSC2
- GI50 (OVCAR-8): 79.6 µM (inactive)
- GI50 (UACC-257): > 100 µM (inactive)
- GI50 (LXFL 529): > 100 µM (inactive)
- GI50 (SN12C): > 100 µM (inactive)
- GI50 (UACC-62): > 78.7 µM (inactive)
- GI50 (IGROV-1): > 100 µM (inactive)
- GI50 (RXF 393): 47.5 µM (inactive)
- GI50 (SNB-78): 49.3 µM (inactive)
- GI50 (SNB-19): 51.8 µM (inactive)
- GI50 (ACHN): > 100 µM (inactive)
- GI50 (EKVX): > 100 µM (inactive)
- GI50 (LOX IMVI): > 94.6 µM (inactive)
- GI50 (NCI-H522): 76.2 µM (inactive)
- GI50 (COLO 205): > 100 µM (inactive)
- GI50 (SK-OV-3): > 100 µM (inactive)
- GI50 (K562): > 100 µM (inactive)
- GI50 (SW-620): > 100 µM (inactive)
- GI50 (MOLT-4): > 100 µM (inactive)
- GI50 (CCRF-CEM): > 100 µM (inactive)
- GI50 (A498): > 91 µM (inactive)
- GI50 (KM-20L2): > 100 µM (inactive)
- GI50 (HCC 2998): > 100 µM (inactive)
- GI50 (DMS-114): > 85.5 µM (inactive)
- GI50 (SF-268): 54.1 µM (inactive)
- GI50 (NCI-H23): > 72.1 µM (inactive)
- GI50 (M14): > 100 µM (inactive)
- GI50 (SR): > 100 µM (inactive)
- GI50 (UO-31): > 100 µM (inactive)
- GI50 (SNB-75): 22.5 µM (inactive)
- GI50 (RXF 631): > 100 µM (inactive)
- GI50 (SF-539): 53.3 µM (inactive)
- GI50 (MDA-N): > 100 µM (inactive)
- GI50 (MDA-MB-231): > 100 µM (inactive)
- GI50 (OVCAR-4): > 100 µM (inactive)
- GI50 (TK-10): > 100 µM (inactive)
- GI50 (KM12): > 100 µM (inactive)
- GI50 (Malme-3M): > 100 µM (inactive)
- GI50 (NCI-H460): > 100 µM (inactive)
- GI50 (SK-MEL-2): 55.8 µM (inactive)
- GI50 (MCF7): > 100 µM (inactive)
- GI50 (CAKI-1): > 93.5 µM (inactive)
- GI50 (BT-549): > 100 µM (inactive)
- GI50 (HOP-18): > 100 µM (inactive)
- GI50 (NCI/ADR-RES): > 100 µM (inactive)
- GI50 (NCI-H226): > 70.6 µM (inactive)
- GI50 (A549): > 100 µM (inactive)
- GI50 (M19-MEL): > 100 µM (inactive)
- GI50 (MDA-MB-435): > 100 µM (inactive)
- GI50 (HOP-62): 47.6 µM (inactive)
- GI50 (PC-3): > 100 µM (inactive)
- GI50 (DMS-273): > 100 µM (inactive)
- GI50 (DLD-1): > 100 µM (inactive)
- GI50 (Hs-578T): 97.9 µM (inactive)
- GI50 (OVCAR-5): > 100 µM (inactive)
- GI50 (U-251): 40.3 µM (inactive)
- GI50 (XF498): 34.7 µM (inactive)
- GI50 (OVCAR-3): > 100 µM (inactive)
- GI50 (RPMI-8226): > 100 µM (inactive)
- GI50 (SF-295): 51.3 µM (inactive)
- GI50 (SK-MEL-5): > 100 µM (inactive)
- GI50 (HOP-92): 32 µM (inactive)
- GI50 (HCT-15): > 91.2 µM
- GI50 (786-0): 53.6 µM (inactive)
- GI50 (HCT-116): 97.9 µM (inactive)
- GI50 (HL-60): > 100 µM (inactive)
- GI50 (DU-145): > 100 µM (inactive)
- GI50 (SK-MEL-28): > 100 µM (inactive)
- GI50 (HT-29): > 100 µM (inactive)

SMILES: COC1CC(CC2CCC(C)C(C(C)C(=O)O)O2)OC2(OC(C)(C3CCC(C)(C4OC(C5OC(O)(CO)C(C)CC5C)CC4C)O3)CC2C)C1C (stereo unspecified)
- GI50 (OVCAR-8): 1.38 µM (inactive)
- GI50 (UACC-257): 0.0578 µM (active)
- GI50 (LXFL 529): 0.0535 µM (active)
- GI50 (SN12C): 0.257 µM (active)
- GI50 (UACC-62): 1.61 µM (inactive)
- GI50 (IGROV-1): 1.56 µM (inactive)
- GI50 (RXF 393): < 0.0109 µM (active)
- GI50 (SNB-78): 1.51 µM (inactive)
- GI50 (SNB-19): 0.359 µM (active)
- GI50 (ACHN): 0.964 µM (active)
- GI50 (EKVX): 2.15 µM (inactive)
- GI50 (LOX IMVI): 1.28 µM (inactive)
- GI50 (NCI-H522): 0.0217 µM (active)
- GI50 (COLO 205): 0.116 µM (active)
- GI50 (SK-OV-3): 7.4 µM (inactive)
- GI50 (K562): 0.0502 µM (active)
- GI50 (SW-620): 1.52 µM (inactive)
- GI50 (MOLT-4): 0.347 µM (active)
- GI50 (CCRF-CEM): 0.0228 µM (active)
- GI50 (A498): 0.22 µM (active)
- GI50 (KM-20L2): 0.124 µM (active)
- GI50 (HCC 2998): 0.186 µM (active)
- GI50 (DMS-114): < 0.0151 µM (active)
- GI50 (SF-268): 1.88 µM (inactive)
- GI50 (NCI-H23): 0.295 µM (active)
- GI50 (M14): 1.8 µM (inactive)
- GI50 (SR): 0.0634 µM (active)
- GI50 (UO-31): 1.79 µM (inactive)
- GI50 (SNB-75): 0.36 µM (active)
- GI50 (RXF 631): 0.0738 µM (active)
- GI50 (SF-539): 0.19 µM (active)
- GI50 (MDA-N): 0.757 µM (active)
- GI50 (MDA-MB-231): 1.53 µM (inactive)
- GI50 (T47D): 0.284 µM (active)
- GI50 (OVCAR-4): 6.56 µM (inactive)
- GI50 (TK-10): 5.36 µM (inactive)
- GI50 (KM12): 0.773 µM (active)
- GI50 (Malme-3M): 0.0923 µM (active)
- GI50 (NCI-H460): 0.402 µM (active)
- GI50 (SK-MEL-2): 0.646 µM (active)
- GI50 (MCF7): 0.15 µM (active)
- GI50 (CAKI-1): 0.906 µM (active)
- GI50 (BT-549): 0.3 µM (active)
- GI50 (HOP-18): 0.284 µM (active)
- GI50 (NCI-H226): 1.21 µM (inactive)
- GI50 (A549): 0.111 µM (active)
- GI50 (M19-MEL): 0.239 µM (active)
- GI50 (MDA-MB-435): 1.75 µM (inactive)
- GI50 (HOP-62): 0.522 µM (active)
- GI50 (PC-3): 0.552 µM (active)
- GI50 (DMS-273): 0.0719 µM (active)
- GI50 (DLD-1): 0.51 µM (active)
- GI50 (Hs-578T): 0.91 µM (active)
- GI50 (OVCAR-5): 8.11 µM (inactive)
- GI50 (U-251): 0.0836 µM (active)
- GI50 (XF498): 0.0423 µM (active)
- GI50 (OVCAR-3): 0.0406 µM (active)
- GI50 (RPMI-8226): 0.167 µM (active)
- GI50 (SF-295): 1.15 µM (inactive)
- GI50 (SK-MEL-5): 0.156 µM (active)
- GI50 (HOP-92): 1.07 µM (active)
- GI50 (HCT-15): 1.85 µM
- GI50 (786-0): 1.08 µM (active)
- GI50 (HCT-116): 0.759 µM (active)
- GI50 (HL-60): 0.0363 µM (active)
- GI50 (DU-145): 3.85 µM (inactive)
- GI50 (SK-MEL-28): 1.43 µM (inactive)
- GI50 (HT-29): 0.183 µM (active)
